Test results from patent US12642791B2, “Inhibitors of lysyl oxidases” (UNIVERSITY OF SOUTH CAROLINA, priority 2021, dated 2026).

What was measured:
[1] = tested on: ACHN kidney cancer cell line; test: Growth inhibition in 3D collagen:matrigel culture (3D Cell Titer Glo); format: cell-based, human; conditions: collagen:matrigel (1:1), uM range
Protocol: (§1) FIG. 38. Dose dependent inhibition of cellular LOX activity and growth inhibition in 3D upon treatment with 6232 and its analogs, 6403 and 6415.in ACHN cancer cell line. Inhibition of cell-based LOX activity in ACHN (A) and growth inhibition in collagen:matrigel (1:1) culture (B) cancer cell lines upon treatment with LOX inhibitors 6232, 6403 and 6415 (uM range). BAPN is used as a positive control (mM range) in 3D cell viability assay. Growth inhibition was measured by using 3D Cell Titer Glo kit.
Collagen solution was prepared at a concentration of 0.5-1 mg/ml from the rat tail collagen I (Corning, USA) with a neutralization step including the addition of 1N NaOH solution. Cells were trypsinazed and resuspended in collagen:matrigel mix (1:1). 8×10^3 cells were seeded into 96-well or μ-Slide 8-well glass bottom chambers. After 1 hour of incubation at room temperature, media was added on top of the solidified collagen:matrigel mix. Drug treatments were done 12 hours after cell seeding.

recombinant LOX = target: T1, recombinant LOX (Homo sapiens, UniProt P28300); test: Lysyl oxidase activity assay with recombinant LOX protein; format: biochemical; conditions: for inhibition of recombinant LOX: 10 μM compound; for selectivity LOX versus LOXL2 / LOX family: recombinant proteins
T1 construct: purchased Novus, USA
T1 sequence (P28300 169-417): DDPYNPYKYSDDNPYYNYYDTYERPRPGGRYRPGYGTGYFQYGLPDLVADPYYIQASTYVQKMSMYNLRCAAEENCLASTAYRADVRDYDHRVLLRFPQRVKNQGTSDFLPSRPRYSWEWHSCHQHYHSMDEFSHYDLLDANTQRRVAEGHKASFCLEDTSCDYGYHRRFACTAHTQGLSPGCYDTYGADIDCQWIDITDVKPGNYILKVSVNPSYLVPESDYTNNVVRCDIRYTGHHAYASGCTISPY
Protocol: For in vitro lysyl oxidase activity (for recombinant proteins), Lysyl Oxidase Activity kit (Biovision, USA) was used according to manufacturer's instructions. Briefly, 1 μg of LOX (Novus, USA), 0.2 μg of LOXL1 (Abcam, USA) and 0.1 μg of LOXL2 (Abcam, USA) were incubated with the reagent mix in the presence of inhibitors or vehicle. Lysyl oxidase activity of the wells was measured in multimode reader (every 30 sec, total 2.5 hours) in […] mode.

HFF cells = test: Fibrosis assay (TGF-beta induced, alpha-SMA and fibronectin staining); format: cell-based, human; conditions: 10 uM compound, 1 hour pretreatment, TGF-β 48 hours
Protocol: FIG. 40. […] 24 hours serum-starved HFF cells were pretreated with inhibitors 1 hours. Then, fibrosis was induced by […] of TGF-β for 48 hours in HFF cells. ALK5 (10 μM) inhibitor is used as a negative control. LOX inhibitors 6232, 6403 and 6415 were used at 10 uM concentration. HFF cells were stained with alpha-SMA and fibronectin primary antibodies. Nucleus of the cells was labeled with DAPI.
Human foreskin fibroblasts (HFF), see Li, M. et al. Icaritin inhibits skin fibrosis through regulating AMPK and Wnt/β-catenin signaling. Cell Biochemistry and Biophysics 79, 231-238 (2021), cells were seeded into μ-Slide 8-well glass bottom chambers (Ibidi, Germany). Next day, media of the cells were replaced with 0.5% FBS contain media and incubated with 24 hours. Then, cells were pretreated either with ALK5 inhibitor (Sellekchem, USA) or LOX inhibitors for 1 hour and cells were incubated with 10 ng/ml of TGF-beta (R&D Biosystems, USA) for 48 hours. Staining of the markers followed the same procedure described in the Immunofluorescence section above.

HUVEC = test: Viability assay in normal cells; format: cell-based; conditions: human endothelial cell line
Text: (§2) FIG. 32. 6232 derivatives, 6403 and 6415, show no cytotoxicity in normal cells. Viability assay in normal breast cell line, MCF12A, human foreskin fibroblast cell line, HFF and human endothelial cell line, HUVEC treated with 6403 or 6415.

HFF = test: Viability assay in normal cells; format: cell-based; conditions: human foreskin fibroblast cell line
Text: as §2

[2] = tested on: cellular lysyl oxidase activity, ACHN; test: Cell-based LOX activity in kidney cancer cell line; design: species or system human; conditions: uM range
Protocol: as §1
For cell-based lysyl oxidase activity, fluorometric Lysly Oxidase Activity Assay Kit (Abcam, USA) was used according to manufacturer's instructions. Briefly, after the treatment, 50 μl of supernatant from each well was incubated with reagent mix and fluorescence measured in multimode-reader at Ex/Em=540/590 nm wavelength.

[3] = tested on: MDA-MB-231 cells embedded in collagen I; test: ECM crosslinking by collagen and fibronectin immunofluorescence staining; format: cell-based, human
Protocol: FIG. 31. […] A. Inhibition of LOX activity in MDA-MB-231 cells treated with 5 μM of the LOX inhibitors. B. Doxorubicin sensitization with 6232 and its analogs, 6403 and 6415, in 3D collagen-I culture. C. Collagen and fibronectin staining of vehicle or 6232 or 6403 or 6415-treated MDA-MB-231 cells embedded in collagen I. BAPN is used as a positive control.
Immunofluorescence staining of cells was done in μ-Slide 8-well glass bottom chambers (Ibidi, Germany). Cells were fixed with 4% paraformaldehyde for 20 min, permeabilized with 0.5% Triton X-100 for 10 min and blocked in 5% BSA-PBS. Samples were incubated with primary (Collagen I, Fibronectin, F-actin, a-SMA) and secondary Alexa Fluor 647 or 488-labeled antibodies for 1.5 hours at room temperature. Cells were also counterstained with DAPI for 5 min. Images were acquired using ZEN 2012 SP5 (Black) LSM 700 (Carl Zeiss, DE).

inhibition of recombinant LOX (recombinant LOX)	Compound	cell viability in 3D culture [1]	inhibition of recombinant LOX activity (recombinant LOX; 5 and 10 uM)	selectivity LOX versus LOXL2 / LOX family (recombinant LOX)	selectivity LOX versus LOXL2 / LOX family (recombinant LOX; listed as 4-((2′-amino-4′-methyl-[4,5′-bithiazol]-2-yl)(methyl)amino)phenol)	TGF-β-induced fibrosis (alpha-SMA, fibronectin staining) (HFF cells)	cell viability (cytotoxicity in normal cells) (HUVEC)	cell viability (cytotoxicity in normal cells) (HFF)	cellular lysyl oxidase activity inhibition [2]	ECM crosslinking (collagen and fibronectin staining) [3]
inhibits LOX recombinant protein	CC(=O)Nc1ccc(Nc2nc(-c3sc(N)nc3C)cs2)cc1 [compound 6403, N-[4-[[4-(2-amino-4-methyl-thiazol-5-yl)thiazol-2-yl]amino]phenyl]acetamide]	decrease in cell viability in 3D culture	–	more potent and selective inhibitor against LOX compared to LOXL2	–	inhibited the TGF-β-induced fibrosis	no significant change in cell viability	no significant change in cell viability	dose dependent cellular lysyl oxidase activity inhibition	decrease in ECM crosslinking
strongly inhibit	Cc1nc(N)sc1-c1csc(Nc2ccc([N+](=O)[O-])cc2)n1 [compound 6232, 4-methyl-5-[2-(4-nitroanilino)thiazol-4-yl]thiazol-2-amine]	decrease in cell viability in 3D culture	–	–	–	inhibited the TGF-β-induced fibrosis	–	–	dose dependent cellular lysyl oxidase activity inhibition	decrease in ECM crosslinking

Compound	inhibition of recombinant LOX (recombinant LOX)	cell viability in 3D culture [1]	inhibition of recombinant LOX activity (recombinant LOX; 5 and 10 uM)	selectivity LOX versus LOXL2 / LOX family (recombinant LOX)	selectivity LOX versus LOXL2 / LOX family (recombinant LOX; listed as 4-((2′-amino-4′-methyl-[4,5′-bithiazol]-2-yl)(methyl)amino)phenol)	TGF-β-induced fibrosis (alpha-SMA, fibronectin staining) (HFF cells)	cell viability (cytotoxicity in normal cells) (HUVEC)	cell viability (cytotoxicity in normal cells) (HFF)	cellular lysyl oxidase activity inhibition [2]	ECM crosslinking (collagen and fibronectin staining) [3]
Cc1nc(N)sc1-c1csc(N(C)c2ccc(O)cc2)n1 [compound 6415, 4-[[4-(2-amino-4-methyl-thiazol-5-yl)thiazol-2-yl]-methyl-amino]phenol]	inhibits both LOX and LOXL2 recombinant proteins	decrease in cell viability in 3D culture	inhibited the activity of LOX and LOXL2 recombinant proteins	more like a LOX/LOXL2 inhibitor	non-selective inhibitor of the LOX family of enzymes	inhibited the TGF-β-induced fibrosis	no significant change in cell viability	no significant change in cell viability	dose dependent cellular lysyl oxidase activity inhibition	decrease in ECM crosslinking
